Measurements from patent US8084424B2, “Compositions and methods related to erythropoietin” (University of Utah Research Foundation, priority 2003, dated 2011).
Where a SMILES comes first, the peptide text is derived from it. [ ]: non-standard residue; d: D form. The star is where a group is joined. Sta = CC(C)C[C@H](N)[C@@H](O)CC(=O)O; Isovaleryl = CC(C)CC(=O)*

Assays:
[1] = test system: proteases; assay: Protease inhibitor test: EPO degradation in concentrated medium at pH5.0, assayed by RIA; assay type: biochemical; settings: pH5.0, 37° C.
Procedure: Protease inhibitors can also be added to the conditioned medium in order to improve EPO yields. Several commercially available protease inhibitors were tested to see if they could prevent EPO degradation at pH5.0. 10× concentrated (Step 1) EPO medium was diluted 1:10 in 50 mM Na Acetate, pH5.0 and then incubated at 37° C. with or without protease inhibitors at a concentration of 5 micrograms/ml. Aliquots were taken over a period of 29 hours and assayed by RIA. […] Pepstatin was then tested to determine the minimum concentration at which it is effective. Under the same conditions as described above, pepstatin was included into 10× concentrated medium over range of 0.0005 to 1 ug/ml and incubated at 37° C. for 25 hours. […] To test the effect of pepstatin in the purification process, 0.2 ug/ml of pepstatin was added to the 10× concentrated medium and to the buffers for the S-Sepharose column. Under these conditions, 97% of EPO was recovered from the S-Sepharose Fast Flow column compared to approximately 60% without the use of a protease inhibitor.

[2] = test system: kidney; assay: Renal histology: apoptosis, Trichrome staining for fibrosis, Vimetin immunostaining
Text: The immunohistochemical methods are standard and routinely used in many research and clinical labs.

[3] = test system: lysosomal enzymes (hexoseaminidase, cathepsin B, acid sphigomyelinase, and sulfatase B); assay: Lysosomal enzyme activities in kidney cortex after injection; assay type: in vivo, rat; settings: one day after injection, not acid phosphatase
Text: (§1) The mechanism of Poly-D-Glu-induced acute lysosomal storage condition in proximal tubular cells was addressed.

[4] = Aggregation and ionisation of Poly-D-glutamic acid in solution; assay type: physicochemical; settings: 10 mg/ml, solution at pH≦6
Text: as §1

[5] = test system: interstitial cells; assay: Interstitial cell proliferation in rat kidney (3H-thymidine histoautoradiography, hematoxylin and eosin staining); assay type: in vivo
Procedure: Sprague-Dawley rats of both sexes, weighing from 180 to 200 g, were used throughout the study. A few days before the experiment, rats were adapted to the housing conditions in a central animal facility (regular 12 hours light/dark cycles, free access to standard rat chow and tap water). […] For histoautoradiographic studies, some treated animals and controls were further injected with 300 μCi of [methyl-^3H]-thymidine intraperitoneally 1 hour before their deaths.
One half of the right kidney was immersed in Boulin solution and processed for paraffin sections (approximately 5-μm thickness) destined for histopathologic and/or histoautoradiographic study. For histopathologic use, sections were stained with hematoxylin and eosin with or without periodic acid-Schiff reagent or with Giemsa stain. Histoautoradiographic studies were performed and the data were presented as described earlier (Kishore et al., 1992; Laurent et al., 1983). Briefly each section was examined along parallel straight lines, extending from the subcapsular to the juxtamedullary region. The number of total and labeled nuclei (S-phase cells) were counted, and the corresponding cell type was identified.
Histoautoradiographic labeling indices were subjected to ANOVA, and the significance of the F value was determined. […]

[6] = test system: renal cortex; assay: Angiogenesis in the renal cortex; assay type: in vivo; settings: treated rat kidney
[7] = test system: erythropoietin; assay: Immunohistochemical staining of kidney sections for erythropoietin; assay type: in vivo, rat; settings: for erythropoietin staining of proliferating interstitial cells: 250 mg/kg/day sc for 4 days, euthanized on day 5; for EPO-producing peritubular cells after cessation of treatment: 6 days after the cessation of a 4-day treatment, 250 mg/kg/day
Procedure: Male Sprague-Dawley rats were divided randomly into two groups. […] Kidneys were harvested quickly from the dead rats and one half of one kidney was immersed in 10% neutral buffered formalin. The formalin fixed kidneys were dehydrated and embedded in paraffin. Sections of 3 to 4 μM thickness were cut on a microtome. Sections were deparaffinized by standard methods and processed for immunohistochemical staining for CD73 (5′-nucleotidase) and erythropoietin (Epo) as described below.
Deparaffinized kidney sections were treated for exposure of antigenic sites and blocked for non-specific binding by standard methods. Following this they were incubated with specific antibodies to CD 73 (marker for resident fibroblasts in kidney) or Epo. Goat polyclonal antibodies to CD73 and Epo were purchased from the Santa Cruz Biotechnology, Santa Cruz, Calif. They were used at a dilution of 1:50. After washing off the unreacted primary antibodies, the sections were incubated with biotinylated anti-goat polyclonal antibody (secondary antibody), followed by incubation with avidin-biotin complex. Sections were then washed and incubated with substrate to visualize the antigen-antibody reactions. Positive labeling in the sections is seen as brownish color. […] Sections were examined under a Reichert Microscope and digital images were captured using a Nikon Coolpix 0995 Digital Camera.

[8] = 24 hour urine volume and urine osmolality; settings: pre versus post treatment, versus saline

## CC(C)CC(=O)N[C@H](C(=O)N[C@H](C(=O)N[C@@H](CC(C)C)[C@@H](O)CC(=O)N[C@@H](C)C(=O)N[C@@H](CC(C)C)[C@@H](O)CC(=O)O)C(C)C)C(C)C [Pepstatin] (Isovaleryl-VV[Sta]A[Sta]-OH)
[1]; 5 micrograms/ml, over 29 hours, RIA
  effect on EPO immunoactivity: significant stabilizing effect
[1]; 10× concentrated medium, 25 hours, range 0.0005 to 1 ug/ml
  IC50 (the concentration at which 50% of the proteases are inhibited): approximately 0.02 ug/ml

## Poly-D-glutamic acid
[2]; rat, in vivo
  mesenchymal changes (Vimetin immunostaining): detectable mesenchymal changes
[2]; versus saline
  fibrotic changes in the kidney (Trichrome staining): not much fibrotic reaction
[3]
  activities of several lysosomal enzymes in the kidney cortex: increased
[4]
  size of micronic aggregates formed: ≥ 10 μm
[5]; 7 days after the cessation of treatment, earlier studies
  significant proliferative response of peritubular cells (3H-thymidine incorporation): could not be observed
[5]; female rats treated for 2 days, versus saline
  interstitial cell labeling (3H-thymidine): considerably increased
[6]
  angiogenesis in the renal cortex: angiogenesis
[7]; listed as Poly-D-Glu
  erythropoietin staining of proliferating interstitial cells: labeled with EPO antibody
  EPO-producing peritubular cells after cessation of treatment: consistent labeling
[7]; listed as poly-D-glutamic acid
  erythropoietin staining of proliferating interstitial cells: strongly stain
[7]
  EPO-producing peritubular cells after cessation of treatment: persistence
[8]
  ability of kidneys to concentrate urine as assessed by urine osmolality: does not cause marked abnormalities
